Here are results for five molecules from ChEMBL document CHEMBL1135259, “Azapeptides as inhibitors of the hepatitis C virus NS3 serine protease” (Bioorg Med Chem Lett, 2002).

This assay concerns the target NS3 (Hepatitis C virus) (UniProt A3EZJ3). As to the kind of experiment: Binding affinity against Hepatitis C virus NS3 protease was calculated as Kcat. The following applies: Hepacivirus hominis.

Chain of NS3 (Hepatitis C virus) (A3EZJ3 as listed by the source): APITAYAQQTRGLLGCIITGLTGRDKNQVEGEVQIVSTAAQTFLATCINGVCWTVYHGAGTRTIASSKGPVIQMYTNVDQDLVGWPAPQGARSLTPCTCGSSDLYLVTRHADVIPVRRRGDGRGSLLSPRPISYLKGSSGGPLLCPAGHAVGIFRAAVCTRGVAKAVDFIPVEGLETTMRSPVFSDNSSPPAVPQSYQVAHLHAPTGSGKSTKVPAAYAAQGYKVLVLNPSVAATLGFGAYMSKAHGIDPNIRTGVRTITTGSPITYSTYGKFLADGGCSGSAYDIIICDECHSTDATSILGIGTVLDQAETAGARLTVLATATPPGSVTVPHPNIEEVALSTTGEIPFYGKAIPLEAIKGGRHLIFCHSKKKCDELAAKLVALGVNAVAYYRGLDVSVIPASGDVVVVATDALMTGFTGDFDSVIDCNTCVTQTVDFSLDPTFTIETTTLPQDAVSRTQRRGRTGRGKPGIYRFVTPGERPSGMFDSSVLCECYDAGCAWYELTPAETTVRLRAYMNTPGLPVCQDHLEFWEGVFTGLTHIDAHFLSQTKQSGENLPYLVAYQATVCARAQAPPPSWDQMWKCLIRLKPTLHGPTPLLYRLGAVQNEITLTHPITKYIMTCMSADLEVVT

In the case of `CCCN(NC(=O)[C@H]1CCCN1C(=O)[C@@H](NC(=O)[C@@H](NC(=O)[C@H](CC(=O)O)NC(=O)[C@H](CCC(=O)O)NC(C)=O)C(C)C)C(C)C)C(=O)Oc1ccc([N+](=O)[O-])cc1`, the k cat was 0.00833 s⁻¹.

As to `CCCN(NC(=O)[C@H]1CCCN1C(=O)[C@@H](NC(=O)[C@@H](NC(=O)[C@H](CC(=O)O)NC(C)=O)C(C)C)C(C)C)C(=O)Oc1ccc([N+](=O)[O-])cc1`, the k cat is 0.00833 s⁻¹.

On to `CCCN(NC(=O)[C@H]1CCCN1C(=O)[C@@H](NC(=O)[C@@H](NC(=O)[C@H](CC(=O)O)NC(=O)[C@H](CCC(=O)O)NC(=O)[C@@H](NC(C)=O)[C@@H](C)O)C(C)C)C(C)C)C(=O)Oc1ccc([N+](=O)[O-])cc1`, for which the k cat was 0.00833 s⁻¹.

In the case of `CCCN(NC(=O)[C@H]1CCCN1C(=O)[C@@H](NC(=O)[C@@H](NC(C)=O)C(C)C)C(C)C)C(=O)Oc1ccc([N+](=O)[O-])cc1`, the k cat was 0.00667 s⁻¹.

As for `CCCC(NC(=O)[C@H]1CCCN1C(=O)[C@@H](NC(=O)[C@@H](NC(=O)[C@H](CC(=O)O)NC(=O)[C@H](CCC(=O)O)NC(=O)[C@@H](NC(=O)[C@H](CC(=O)O)NC(C)=O)[C@@H](C)O)C(C)C)C(C)C)C(=O)Oc1ccc([N+](=O)[O-])cc1` (stereo not given in full), the k cat is 1.67 s⁻¹.
